Test results published in patent publication US9695154B2, “Heteroaryl inhibitors of sumo activating enzyme” (MILLENNIUM PHARMACEUTICALS, INC., priority 2013, dated 2017).

Target: T1, recombinant human SAE enzyme (Homo sapiens, UniProt Q9UBT2)
T1 sequence (Q9UBT2 1-640): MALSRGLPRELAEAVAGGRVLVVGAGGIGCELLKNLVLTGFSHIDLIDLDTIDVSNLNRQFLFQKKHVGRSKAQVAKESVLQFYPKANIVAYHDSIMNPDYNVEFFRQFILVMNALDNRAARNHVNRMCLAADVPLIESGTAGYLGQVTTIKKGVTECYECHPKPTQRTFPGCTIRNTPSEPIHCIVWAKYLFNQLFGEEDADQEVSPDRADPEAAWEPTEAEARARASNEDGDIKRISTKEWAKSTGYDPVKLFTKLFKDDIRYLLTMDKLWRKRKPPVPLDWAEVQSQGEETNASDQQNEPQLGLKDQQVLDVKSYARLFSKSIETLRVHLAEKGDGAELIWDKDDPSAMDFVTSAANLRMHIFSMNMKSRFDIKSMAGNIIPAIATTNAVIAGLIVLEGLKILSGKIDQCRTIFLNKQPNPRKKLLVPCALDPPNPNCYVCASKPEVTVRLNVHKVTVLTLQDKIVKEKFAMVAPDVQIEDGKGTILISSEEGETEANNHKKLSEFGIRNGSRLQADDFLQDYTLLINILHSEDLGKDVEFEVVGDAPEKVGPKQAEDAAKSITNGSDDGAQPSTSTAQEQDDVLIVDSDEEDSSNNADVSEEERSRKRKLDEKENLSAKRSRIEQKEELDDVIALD
T1 sequence (Q9UBE0 1-346 partner): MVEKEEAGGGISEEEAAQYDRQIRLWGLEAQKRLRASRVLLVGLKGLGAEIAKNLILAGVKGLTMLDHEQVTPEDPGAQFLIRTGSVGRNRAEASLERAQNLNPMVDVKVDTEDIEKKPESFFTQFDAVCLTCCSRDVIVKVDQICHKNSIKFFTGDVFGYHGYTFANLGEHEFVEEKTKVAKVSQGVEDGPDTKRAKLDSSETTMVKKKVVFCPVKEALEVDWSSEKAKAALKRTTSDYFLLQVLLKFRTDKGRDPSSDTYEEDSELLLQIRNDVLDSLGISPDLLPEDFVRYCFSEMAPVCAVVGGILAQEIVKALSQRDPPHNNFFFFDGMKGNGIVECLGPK
Assay: SAE HTRF Enzyme Assay
Type: biochemical
Conditions: for IC50: class symbols A-C; for inhibition at 0.111 µM: read-out: Percent Inhibition
Method in brief: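 Sumoylation of Ubc9-GST by recombinant human SAE was followed by time-resolved FRET between Eu-cryptate anti-Flag and allophycocyanin anti-GST antibodies. The enzyme step used low ATP (0.5 μM) at pH 7.5 and ran 105 min at 24° C.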

[1] = compound concentration 0.111 μM

| Compound | IC50 [nM] | inhibition at 0.111 µM [1] [%] | Percent Inhibition [1] [%] |
| --- | --- | --- | --- |
| NS(=O)(=O)OC[C@H]1C[C@@H](Nc2ncncc2C(=O)c2ccn(C3C=CCCC3)n2)C[C@@H]1O (mixture of isomers) [Compound I-302, [(1R,2S,4R)-4-{[5-({1-[(1R)-cyclohex-2-en-1-yl]-1H-pyrazol-3-yl}carbonyl)pyrimidin-4-yl]amino}-2-hydroxycyclopentyl]methyl sulfamate and [(1R,2S,4R)-4-{[5-({1-[(1S)-cyclohex-2-en-1-yl]-1H-pyrazol-3-yl}carbonyl)pyrimidin-4-yl]amino}-2-hydroxycyclopentyl]methyl sulfamate] | 100 to 1000 | 34 |  |
| NS(=O)(=O)OC[C@H]1C[C@@H](Nc2ncncc2C(=O)c2ccn(Cc3ccc(F)c(Br)c3)n2)C[C@@H]1O [Compound I-72, {(1R,2S,4R)-4-[(5-{[1-(3-bromo-4-fluorobenzyl)-1H-pyrazol-3-yl]carbonyl}pyrimidin-4-yl)amino]-2-hydroxycyclopentyl}methyl sulfamate] | < 10 | 100 |  |
| CSCn1ccc(C(=O)c2cncnc2N[C@@H]2C[C@H](COS(N)(=O)=O)[C@@H](O)C2)n1 [Compound I-281, [(1R,2S,4R)-2-hydroxy-4-{[5-({1-[(methylsulfanyl)methyl]-1H-pyrazol-3-yl}carbonyl)pyrimidin-4-yl]amino}cyclopentyl]methyl sulfamate] | 100 to 1000 | 25 |  |
| NS(=O)(=O)OC[C@H]1C[C@@H](Nc2ncncc2C(=O)c2ccn(Cc3cccc(Br)n3)n2)[C@H](O)[C@@H]1O [Compound I-284, [(1R,2R,3S,4R)-4-{[5-({1-[(6-bromopyridin-2-yl)methyl]-1H-pyrazol-3-yl}carbonyl)pyrimidin-4-yl]amino}-2,3-dihydroxycyclopentyl]methyl sulfamate] | < 10 | 100 |  |
| NS(=O)(=O)OC[C@H]1C[C@@H](Nc2ncncc2C(=O)c2ccn(Cc3ccc(F)c(Cl)c3)c2)[C@@H](F)[C@@H]1O [Compound I-141, {(1R,2R,3R,4R)-4-[(5-{[1-(3-chloro-4-fluorobenzyl)-1H-pyrrol-3-yl]carbonyl}pyrimidin-4-yl)amino]-3-fluoro-2-hydroxycyclopentyl}methy1 sulfamate] | < 10 | 99 |  |
| COCc1ccc(Cn2ccc(C(=O)c3cncnc3N[C@@H]3C[C@H](COS(N)(=O)=O)[C@@H](O)[C@@H]3F)c2)o1 [Compound I-41, [(1R,2R,3R,4R)-3-fluoro-2-hydroxy-4-({5-[(1-{[5-(methoxymethyl)-2-furyl]methyl}-1H-pyrrol-3-yl)carbonyl]pyrimidin-4-yl}amino)cyclopentyl]methyl sulfamate] | < 10 | 94 |  |
| C#Cc1cc(Cn2ccc(C(=O)c3cncnc3N[C@@H]3C[C@H](COS(N)(=O)=O)[C@@H](O)C3)n2)ccc1F [Compound I-166, {(1R,2S,4R)-4-[(5-{[1-(3-ethynyl-4-fluorobenzyl)-1H-pyrazol-3-yl]carbonyl}pyrimidin-4-yl)amino]-2-hydroxycyclopentyl}methyl sulfamate] | < 10 | 98 |  |
| COC(C)c1cc(C(=O)c2cncnc2N[C@@H]2C[C@H](COS(N)(=O)=O)[C@@H](O)C2)nn1Cc1cccc(Br)c1 (single isomer, unassigned) [Compound I-369b, [(1R,2S,4R)-4-{[5-({1-(3-bromobenzyl)-5-[(1S)-1-methoxyethyl]-1H-pyrazol-3-yl}carbonyl)pyrimidin-4-yl]amino}-2-hydroxycyclopentyl]methyl sulfamate or [(1R,2S,4R)-4-{[5-({1-(3-bromobenzyl)-5-[(1R)-1-methoxyethyl]-1H-pyrazol-3-yl}carbonyl)pyrimidin-4-yl]amino}-2-hydroxycyclopentyl]methyl sulfamate] | < 10 |  | 98 |
| Cc1cc(C(=O)c2cncnc2N[C@@H]2C[C@H](COS(N)(=O)=O)[C@@H](O)C2)nn1Cc1ccc(Cl)o1 [Compound I-101, [(1R,2S,4R)-4-{[5-({1-[(5-chloro-2-furyl)methyl]-5-methyl-1H-pyrazol-3-yl}carbonyl)pyrimidin-4-yl]amino}-2-hydroxycyclopentyl]methyl sulfamate] | < 10 | 100 |  |
| NS(=O)(=O)OC[C@H]1C[C@@H](Nc2ccncc2C(=O)c2ccn(Cc3cccc(OC(F)(F)F)c3)c2)C[C@@H]1O [Compound I-83, [(1R,2S,4R)-2-Hydroxy-4-{[3-({1-[3-(trifluoromethoxy)benzyl]-1H-pyrrol-3-yl}carbonyl)pyridin-4-yl]amino}cyclopentyl]methyl sulfamate] | 10 to 100 | 88 |  |
| NS(=O)(=O)OC[C@H]1C[C@@H](Nc2ccncc2C(=O)c2ccn(Cc3cccc(Cl)c3)c2)C[C@@H]1O [Compound I-201, {(1R,2S,4R)-4-[(3-{[1-(3-chlorobenzyl)-1H-pyrrol-3-yl]carbonyl}pyridin-4-yl)amino]-2-hydroxycyclopentyl}methyl sulfamate] | < 10 | 98 |  |
| NS(=O)(=O)OC[C@H]1C[C@@H](Nc2ncncc2C(=O)c2ccn(Cc3cccnc3)n2)[C@H](O)[C@@H]1O [Compound I-247, {(1R,2R,3S,4R)-2,3-dihydroxy-4-[(5-{[1-(pyridin-3-ylmethyl)-1H-pyrazol-3-yl]carbonyl}pyrimidin-4-yl)amino]cyclopentyl}methyl sulfamate] | < 10 | 90 |  |
| COc1cccc(Cn2ccc(C(=O)c3cncnc3N[C@@H]3C[C@H](COS(N)(=O)=O)[C@@H](O)[C@H]3O)n2)c1 [Compound I-325, {(1R,2R,3S,4R)-2,3-dihydroxy-4-[(5-{[1-(3-methoxybenzyl)-1H-pyrazol-3-yl]carbonyl}pyrimidin-4-yl)amino]cyclopentyl}methyl sulfamate] | < 10 | 99 |  |
| NS(=O)(=O)OC[C@H]1C[C@@H](Nc2ncncc2C(=O)c2ccn(Cc3cccc(Br)c3F)n2)[C@@H](F)[C@@H]1O [Compound I-177, ((1R,2R,3R,4R)-4-((5-(1-(3-Bromo-2-fluorobenzyl)-1H-pyrazole-3 carbonyl)pyrimidin-4-yl)amino)-3-fluoro-2-hydroxycyclopentyl)methyl sulfamate] | < 10 | 99 |  |
| NS(=O)(=O)OC[C@H]1C[C@@H](Nc2ncncc2C(=O)c2ccn(Cc3cccc(Br)c3F)n2)C[C@@H]1O [Compound I-282, {(1R,2S,4R)-4-[(5-{[1-(3-bromo-2-fluorobenzyl)-1H-pyrazol-3-yl]carbonyl}pyrimidin-4-yl)amino]-2-hydroxycyclopentyl}methyl sulfamate] | < 10 | 100 |  |
| NS(=O)(=O)OC[C@H]1C[C@@H](Nc2ncncc2C(=O)c2ccn(Cc3c(F)ccc(F)c3F)n2)[C@H](O)[C@@H]1O [Compound I-225, {(1R,2R,3S,4R)-2,3-dihydroxy-4-[(5-{[1-(2,3,6-trifluorobenzyl)-1H-pyrazol-3-yl]carbonyl}pyrimidin-4-yl)amino]cyclopentyl}methyl sulfamate] | < 10 | > 99 |  |
| NS(=O)(=O)OC[C@H]1C[C@@H](Nc2ncncc2C(=O)c2ccn(Cc3ccc(SC(F)(F)F)cc3)n2)[C@H](O)[C@@H]1O [Compound I-259, [(1R,2R,3S,4R)-2,3-dihydroxy-4-({5-[(1-{4-[(trifluoromethyl)sulfanyl]benzyl}-1H-pyrazol-3-yl)carbonyl]pyrimidin-4-yl}amino)cyclopentyl]methyl sulfamate] | < 10 | 95 |  |
